# Experimental data as given in paper PMC3762829 (PLoS ONE, 2013).
# Values joined by “and” are separate entries in the source; they are usually repeats but may differ in a detail not shown here. Identical values can stand only once. Like-named read-outs stand apart in the source and are kept apart here.
# Assays:
# platelets = tested on: platelets
# Excerpt: Platelet rich plasma was obtained from the supernatant resulting from the centrifugation of blood at 200 g at room temperature.
# [1] = tested on: GK peptide cross linking in the presence of ribose; assay: N-acetyl-glycyl-lysine methyl ester (GK peptide)-ribose assay, late glycation products; assay type: biochemical
# Protocol: GK-peptide-ribose assay was performed with slight modifications from the previously published method. […] The fluorescence of the mixture was read at 340 nm excitation wavelength and 420 nm emission wavelengths using a Shimadzu RF-5301 spectrofluorometer.
# [2] = tested on: HbA1C formation (hemoglobin); assay: Hemoglobin-δ-gluconolactone (δ-Glu) assay, early stage glycation; assay type: biochemical, human
# Protocol: The Hemoglobin-δ-gluconolactone (δ-Glu) assay was performed as per previously published procedure. All the blood samples were analyzed in triplicates. The percent inhibition of HbA1C formation by the compound was calculated by: (B-C)/(B-A)X100, where A is HbA1C concentration in the baseline control tube not treated with δ-Glu, B is the HbA1C content of the test tube treated with δ-Glu, and C is the HbA1C levels in the sample treated with both δ-Glu and the compound under study.
# [3] = tested on: MG-mediated HSA glycation; settings: 14 days
# Excerpt: The % inhibition of AGEs formation = [1 −(fluorescence of the test group/fluorescence of the control group)] × 100.
# HSA glycation by DHA = assay type: biochemical, human; settings: HSA + 20 mM DHA
# Excerpt: The method of Rahbar et al., was followed with slight modifications for the determination of percent of AGEs formed [26].
# hemoglobin = tested on: hemoglobin; set-up: method as in PMID 14568007; settings: cited from earlier work
smiles,measurement,setting,value
"CN(C)C(=N)N=C(N)N [MF, metformin]","cytotoxicity (LDH leakage), in words",platelets; 200 µM,not cytotoxic
same,total lactate dehydrogenase released in the incubation medium,"platelets; 200 µM, incubation time 0 min",0±0.000%
same,total lactate dehydrogenase released in the incubation medium,"platelets; 200 µM, incubation time 30 min",1.23±0.232%
same,total lactate dehydrogenase released in the incubation medium,"platelets; 200 µM, incubation time 60 min",2.23±0.331%
same,total lactate dehydrogenase released in the incubation medium,"platelets; 200 µM, incubation time 90 min",3.56±0.237%
same,total lactate dehydrogenase released in the incubation medium,"platelets; 200 µM, incubation time 120 min",4.23% and 4.23±0.352%
same,total lactate dehydrogenase released in the incubation medium,"platelets; 225 µM, incubation time 120 min",4.51±0.312%
same,total lactate dehydrogenase released in the incubation medium,"platelets; 250 µM, incubation time 120 min",5.63±0.563%
same,total lactate dehydrogenase released in the incubation medium,"platelets; 300 µM, incubation time 120 min",6.37±0.349%
same,"cytotoxicity (LDH leakage), in words",platelets; above 200 µM,highly cytotoxic
same,inhibition of late glycation end products,"[1]; 200 µM, 14 day period",66%
same,inhibition in the formation of HbA1c,[2]; 10 µM,11.6%
same,inhibition in the formation of HbA1c,[2]; 100 µM,17.1%
same,inhibition in the formation of HbA1c,[2]; 500 µM,23.3%
same,inhibition in the formation of HbA1c,"[2]; 1000 µM, simultaneous incubation",28.1%
same,inhibition of the formation of fluorescent products,"[2]; pre-incubation of fresh blood with 1000 µM for 24 h, then δ-gluconolactone",30.3%
"N=C(N)NN [AG, aminoguanidine]",inhibition of MG-catalysed HSA glycation,"[3]; 10 mM, 40 mM MG, 37°C",49%
same,inhibition of fluorescence associated with AGE product formation,HSA glycation by DHA; 10 mM,70.1%
same,effect on hemoglobin glycation,hemoglobin,no significant effect
same,total lactate dehydrogenase released in the incubation medium,"platelets; 10 mM, incubation time 0 min",0±0.000%
same,total lactate dehydrogenase released in the incubation medium,"platelets; 10 mM, incubation time 30 min",2.86±0.413%
same,total lactate dehydrogenase released in the incubation medium,"platelets; 10 mM, incubation time 60 min",4.23±0.432%
same,total lactate dehydrogenase released in the incubation medium,"platelets; 10 mM, incubation time 90 min",5.81±0.134%
same,total lactate dehydrogenase released in the incubation medium,"platelets; 10 mM, incubation time 120 min",6.63±0.232%
same,inhibition of late glycation products,[1]; 10 mM,60%
same,inhibition in the formation of HbA1c,[2]; 10 mM,15%
"Cc1ncc(CO)c(CN)c1O [PM, pyridoxamine]",inhibition of MG-catalysed HSA glycation,"[3]; human, 10 mM, pH 7.4",54%
same,inhibition of MG-catalysed HSA glycation,"[3]; human, 20 mM, pH 7.4",69%
same,inhibition of post-Amadori glycation and AGE formation,HSA glycation by DHA; 20 mM,78.4%
same,total lactate dehydrogenase released in the incubation medium,"platelets; human, 0 min, 20 mM",0±0.000%
same,total lactate dehydrogenase released in the incubation medium,"platelets; human, 30 min, 20 mM",1.23±0.235%
same,total lactate dehydrogenase released in the incubation medium,"platelets; human, 60 min, 20 mM",2.11±0.230%
same,total lactate dehydrogenase released in the incubation medium,"platelets; human, 90 min, 20 mM",3.23±0.212%
same,total lactate dehydrogenase released in the incubation medium,"platelets; human, 120 min, 22 mM",3.92±0.683%
same,total lactate dehydrogenase released in the incubation medium,"platelets; human, 120 min, 25 mM",4.14±0.334%
same,inhibition of late glycation end products,[1]; 20 mM,79%
same,inhibition in the formation of HbA1c,[2]; 1 mM,9.1%
same,inhibition in the formation of HbA1c,[2]; 5 mM,20.4%
same,inhibition in the formation of HbA1c,[2]; 10 mM,29.3%
same,inhibition in the formation of HbA1c,[2]; 20 mM,41.1%
same,inhibition of the formation of fluorescent products,"[2]; pre-incubation of fresh blood with 20 mM for 24 h, then δ-gluconolactone",47%
same,inhibition of the formation of fluorescent products,"[2]; simultaneous incubation of whole blood, δ-gluconolactone and 10 mM (so in the source), data not shown",41%
